Results on 19 molecules are retold here after ChEMBL document CHEMBL1126373, “HIV and reverse transcriptase inhibition by tannins” (Bioorg Med Chem Lett, 1992).

Calls of active or inactive are those of the source. No cut-off for these calls is given here.

Data set [1] has as its system Human immunodeficiency virus 1. As to the kind of experiment: Compound was tested for anti-HIV activity in cell culture assay; active anti HIV agent. In kind it is functional, organism-based.
For data set [2], the system named is Human immunodeficiency virus 1. As to the kind of experiment: Compound was tested for anti-HIV activity in cell culture assay expressed as IC50 values. In kind it is functional, organism-based.
Data set [3] relates to Human immunodeficiency virus 1. As to the kind of experiment: Inhibition against HIV replication in cell culture at 20 ug/mL. Conditions: for inhibition at 20 µg/mL: Human immunodeficiency virus 1. The format is functional.
Data set [4] concerns Human immunodeficiency virus 1. As to the kind of experiment: Anti-HIV activity in cell culture assay expressed as EC50 values. In kind it is functional, organism-based.
Data set [5] concerns the target Human immunodeficiency virus type 1 reverse transcriptase (Human immunodeficiency virus 1) (UniProt Q72547). As to the kind of experiment: Inhibition against HIV- reverse transcriptase in cell culture at 20 ug/mL.
Data set [6] has as its system Human immunodeficiency virus 1. As to the kind of experiment: (§1) Therapeutic index was determined. The settings on record: read-out: Therapeutic index.
Data set [7] concerns Human immunodeficiency virus 1. As to the kind of experiment: Anti-HIV activity in cell culture assay expressed as IC50 values. The format is functional, organism-based.
Data set [8] can be described thus: as §1. The settings on record: Human immunodeficiency virus 1.

Consider `O=C1OC[C@H]2O[C@@H](O)[C@H](O)[C@@H](O)[C@@H]2OC(=O)c2cc(O)c(O)c(O)c2-c2c(O)c(O)c3oc(=O)c4c(c(O)c(O)c5oc(=O)c2c3c54)-c2c1cc(O)c(O)c2O`, for which the Activity entry in data set [1] is “active anti HIV agent”.

Turning to `O=C(O[C@@H]1O[C@H](CO)[C@@H](O)[C@H](O)[C@H]1O)c1cc(O)c(O)c(O)c1`, it took 80 µM to reach half-maximal inhibition in data set [2] (IC50). Moreover, 20 µg/mL produced 0% inhibition in data set [3]. The EC50 – broadly, the concentration at which the effect is half-maximal – in data set [4] (Human immunodeficiency virus 1) was 100 µM. For the same molecule, the inhibition (usually the share of the control response that was lost under treatment) in data set [5] is 18%. Further, in data set [6], the selectivity ratio is 0.8.

On to `O=C(OC[C@H]1O[C@@H](OC(=O)c2cc(O)c(O)c(O)c2)[C@H](O)[C@@H](O)[C@@H]1O)c1cc(O)c(O)c(O)c1`, for which the concentration for half-maximal inhibition (IC50) (in general, the midpoint of a concentration-inhibition curve) in data set [2] was 38 µM. Moreover, in data set [3], the inhibition at 20 µg/mL came to 40%. For the same molecule, a half-maximal effect in data set [4] (Human immunodeficiency virus 1) (EC50) was put at 50 µM. This molecule came in with an inhibition in data set [5] of 14%. The selectivity ratio in data set [6] was found to be 0.8.

`O=C(O[C@@H]1C[C@](OC(=O)c2cc(O)c(O)c(O)c2)(C(=O)O)C[C@@H](OC(=O)c2cc(O)c(O)c(O)c2)[C@H]1OC(=O)c1cc(O)c(O)c(O)c1)c1cc(O)c(O)c(O)c1`: in data set [1], the outcome was Active.

As to `O=C(Oc1c(O)cc(C(=O)O[C@@H]2C[C@](O)(C(=O)O)C[C@@H](OC(=O)c3cc(O)c(O)c(O)c3)[C@H]2OC(=O)c2cc(O)c(O)c(O)c2)cc1O)c1cc(O)c(O)c(O)c1`, the Activity entry in data set [1] was “active anti HIV agent”.

On to `O=C1OC(C2OC(=O)c3cc(O)c(O)c(O)c3-c3c(O)c(O)c4oc(=O)c5c(c(O)c(O)c6oc(=O)c3c4c65)-c3c(cc(O)c(O)c3O)C(=O)OCC2O)C2OC(=O)c3c(c(O)c(O)c(O)c3[C@H]2O)-c2c1cc(O)c(O)c2O` (stereo not given in full), for which, in data set [1], the Activity result was “active anti HIV agent”.

`O=C(OC[C@H]1O[C@@H](OC(=O)c2cc(O)c(O)c(O)c2)[C@H](OC(=O)c2cc(O)c(O)c(O)c2)[C@@H](O)[C@@H]1O)c1cc(O)c(O)c(O)c1` returned a half-maximal inhibitory concentration (IC50) in data set [7] (Human immunodeficiency virus 1) of 19 µM. The molecule also gave an inhibition at 20 µg/mL in data set [3] of 20%. The same molecule displayed a half-maximal effective concentration (EC50) in data set [4] (Human immunodeficiency virus 1) of 50 µM. The inhibition in data set [5] worked out at 16%. Besides, the selectivity ratio in data set [6] came to 0.4.

Regarding `O=C(Oc1c(O)cc(C(=O)O[C@H]2[C@H](OC(=O)c3cc(O)c(O)c(O)c3)C[C@](O)(C(=O)O)C[C@H]2OC(=O)c2cc(O)c(O)c(O)c2)cc1O)c1cc(O)c(O)c(O)c1`, the Activity entry in data set [1] is “active anti HIV agent”.

Take `O=C(OC[C@H]1O[C@@H](OC(=O)c2cc(O)c(O)c(O)c2)[C@H](OC(=O)c2cc(O)c(O)c(O)c2)[C@@H](OC(=O)c2cc(O)c(O)c(O)c2)[C@@H]1OC(=O)c1cc(O)c(O)c(O)c1)c1cc(O)c(O)c(O)c1` (stereo in doubt; 10) [PENTAGALLOYL GLUCOSE]: the IC50 in data set [7] came to 19 µM. For the same molecule, in data set [3], the Inhibition – broadly, the share of the control response that was lost under treatment – was 60%. In data set [4], this molecule registered an EC50 of 15 µM. The molecule further showed a Therapeutic index in data set [8] of 1.3.

Turning to `O=C(O)C1=C[C@@H](O)[C@@H](O)[C@H](OC(=O)c2cc(O)c(O)c(OC(=O)c3cc(O)c(O)c(O)c3)c2)C1`, in data set [7] (Human immunodeficiency virus 1), it took 40 µM to reach half-maximal inhibition (IC50). Further, testing at 20 µg/mL in data set [3] gave an inhibition of 60%. In data set [4] (Human immunodeficiency virus 1), this molecule showed an EC50 of 30 µM. The molecule further yielded an inhibition in data set [5] of 31%. For the same molecule, in data set [6], the selectivity ratio worked out at 1.3.

For the molecule `O=C(O[C@H]1[C@H](O)C[C@](O)(C(=O)O)C[C@H]1O)c1cc(O)c(O)c(O)c1`, half-maximal inhibition in data set [7] (Human immunodeficiency virus 1) (IC50) required 80 µM. The molecule further gave an inhibition at 20 µg/mL in data set [3] of 0%. The molecule also returned a half-maximal effective concentration (EC50) in data set [4] (Human immunodeficiency virus 1) of more than 100 µM. Besides, the inhibition in data set [5] is 0%. Also, the selectivity ratio in data set [6] was less than 0.8.

`CC1(C)CC[C@]2(C(=O)O)CC[C@]3(C)C(=CCC4[C@@]5(C)C[C@@H](O)[C@@H]6OC(=O)c7cc(O)c(O)c(O)c7-c7c(cc(O)c(O)c7O)C(=O)OC[C@@]6(CO)C5CC[C@]43C)C2C1` (stereo not given in full) returned an IC50 in data set [7] (Human immunodeficiency virus 1) of 40 µM. Also, the inhibition at 20 µg/mL in data set [3] is 23%. In data set [4] (Human immunodeficiency virus 1), the response was half-maximal at 40 µM (EC50). Besides, the inhibition in data set [5] turned out to be 18%. Further, the selectivity ratio in data set [6] amounted to 1.

The molecule `O=C(OC[C@@H]1O[C@@H](OC(=O)c2cc(O)c(O)c(O)c2)[C@@H](OC(=O)c2cc(O)c(O)c(O)c2)[C@@H](OC(=O)c2cc(O)c(O)c(O)c2)[C@@H]1OC(=O)c1cc(O)c(O)c(O)c1Oc1cc2c(c(O)c1O)-c1c(cc(O)c(O)c1O)C(=O)OC[C@@H]1O[C@@H](OC(=O)c3cc(O)c(O)c(O)c3)[C@@H](OC(=O)c3cc(O)c(O)c(O)c3)[C@@H](OC(=O)c3cc(O)c(O)c(O)c3)[C@@H]1OC2=O)c1cc(O)c(O)c(O)c1` had a 50% inhibitory concentration (IC50) in data set [7] (Human immunodeficiency virus 1) of 39 µM. In data set [3], this molecule yielded an inhibition at 20 µg/mL of 50%. Also, the concentration for a half-maximal effect (EC50) in data set [4] (Human immunodeficiency virus 1) stood at 12 µM. Besides, the inhibition in data set [5] stood at 0%. Also, the selectivity ratio in data set [6] came out at 3.3.

In data set [7] (Human immunodeficiency virus 1), `O=C1O[C@H]2[C@H](OC(=O)c3cc(O)c(O)c(O)c3)[C@@H](OC(=O)c3cc(O)c(O)c4c3[C@@H]3C1=CC(=O)C(O)(O)C3(O)O4)[C@H](OC(=O)c1cc(O)c(O)c(O)c1)O[C@@H]2COC(=O)c1cc(O)c(O)c(O)c1` (stereo not given in full) [TERCHEBIN] displayed a concentration for half-maximal inhibition (IC50) of 40 µM. In data set [3], this molecule came in with an inhibition at 20 µg/mL of 50%. For the same molecule, it took 21 µM to reach a half-maximal effect in data set [4] (Human immunodeficiency virus 1) (EC50). In data set [5], this molecule came in with an inhibition of 13%. In data set [6], the selectivity ratio worked out at 1.9.

For the molecule `O=C(O[C@H]1[C@H](O)C[C@](OC(=O)c2cc(O)c(O)c(O)c2)(C(=O)O)C[C@H]1O)c1cc(O)c(O)c(O)c1`, it took 45 µM to reach half-maximal inhibition in data set [7] (Human immunodeficiency virus 1) (IC50). Also, the inhibition at 20 µg/mL in data set [3] is 65%. In addition, in data set [4] (Human immunodeficiency virus 1), the EC50 turned out to be 25 µM. Further, the inhibition in data set [5] stood at 0%. Besides, the selectivity ratio in data set [6] stood at 1.8.

`O=C(OC[C@H]1OC(O)[C@@](O)(COC(=O)c2cc(O)c(O)c(O)c2)[C@@H]1OC(=O)c1cc(O)c(O)c(O)c1)c1cc(O)c(O)c(O)c1` (stereo not given in full) showed an IC50 in data set [7] (Human immunodeficiency virus 1) of 40 µM. For the same molecule, in data set [3], 20 µg/mL produced 30% inhibition. The same molecule gave an EC50 in data set [4] (Human immunodeficiency virus 1) of 45 µM. This molecule also showed an inhibition in data set [5] of 25%. Besides, in data set [6], the selectivity ratio was 0.9.

`Oc1cc(O)c2c(c1)O[C@@]1(c3ccc(O)c(O)c3)Oc3cc(O)c4c(c3[C@@H]2[C@H]1O)O[C@H](c1ccc(O)c(O)c1)[C@H](O)[C@H]4c1c(O)cc(O)c2c1O[C@H](c1ccc(O)c(O)c1)[C@H](O)C2` [CINNAMTANNIN B1] displayed a half-maximal inhibitory concentration (IC50) in data set [7] (Human immunodeficiency virus 1) of more than 25 µM. Besides, the inhibition at 20 µg/mL in data set [3] was 90%. In data set [4] (Human immunodeficiency virus 1), this molecule had an EC50 of 21 µM. This molecule had an inhibition in data set [5] of 13%. Moreover, in data set [6], the selectivity ratio is more than 1.2.

For `O=C(Oc1c(O)cc(C(=O)O[C@@H]2C[C@@](O)(C(=O)O)C[C@@H](OC(=O)c3cc(O)c(O)c(O)c3)[C@@H]2OC(=O)c2cc(O)c(O)c(O)c2)cc1O)c1cc(O)c(O)c(O)c1`, in data set [1], the Activity entry is “active anti HIV agent”.

Take `Oc1cc(O)c2c(c1)O[C@H](c1ccc(O)c(O)c1)[C@H](O)[C@H]2c1c(O)cc(O)c2c1O[C@H](c1ccc(O)c(O)c1)[C@H](O)[C@H]2c1c(O)cc(O)c2c1O[C@H](c1ccc(O)c(O)c1)[C@H](O)C2` [PROCYANIDIN C1]: in data set [7] (Human immunodeficiency virus 1), the concentration for half-maximal inhibition (IC50) is more than 25 µM. In data set [3], this molecule registered an inhibition at 20 µg/mL of 68%. Moreover, the concentration for a half-maximal effect (EC50) in data set [4] (Human immunodeficiency virus 1) is more than 25 µM. The molecule further showed an inhibition in data set [5] of 18%. Moreover, the selectivity ratio in data set [6] is more than 1.
